Source: ChEMBL document CHEMBL1649542, “Outer membrane protein STM3031 (Ail/OmpX-like protein) plays a key role in the ceftriaxone resistance of Salmonella enterica serovar Typhimurium” (2009)
In brackets after ≈: the same amount, converted by molar mass.

Assays:
Type in all cases: functional, Salmonella enterica subsp. enterica serovar Typhimurium
[1] = test system: Salmonella typhimurium; assay: Antibacterial activity against Salmonella enterica serovar Typhimurium 01-4 by CLSI M7-A7 agar dilution method
[2] = test system: Salmonella typhimurium; assay: Antibacterial activity against Salmonella enterica serovar Typhimurium R200 expressing Outer membrane protein STM3031 by CLSI M7-A7 agar dilution method
[3] = test system: Salmonella typhimurium; assay: Antibacterial activity against Salmonella enterica serovar Typhimurium R200 expressing stm3031 gene deletion mutant by CLSI M7-A7 agar dilution method
[4] = test system: Salmonella typhimurium; assay: Antibacterial activity against Salmonella enterica serovar Typhimurium 01-4 by Etest method
[5] = test system: Salmonella typhimurium; assay: Antibacterial activity against Salmonella enterica serovar Typhimurium R1 expressing Outer membrane protein STM3031 after serial passage by Etest method
[6] = test system: Salmonella typhimurium; assay: Antibacterial activity against Salmonella enterica serovar Typhimurium R5 expressing Outer membrane protein STM3031 after serial passage by Etest method
[7] = test system: Salmonella typhimurium; assay: Antibacterial activity against Salmonella enterica serovar Typhimurium R10 expressing Outer membrane protein STM3031 after serial passage by Etest method
[8] = test system: Salmonella typhimurium; assay: Antibacterial activity against Salmonella enterica serovar Typhimurium R25 expressing Outer membrane protein STM3031 after serial passage by Etest method
[9] = test system: Salmonella typhimurium; assay: Antibacterial activity against Salmonella enterica serovar Typhimurium R70 expressing Outer membrane protein STM3031 after serial passage by Etest method
[10] = Salmonella enterica subsp. enterica serovar Typhimurium

Compound | MIC [1] [µg/mL] | MIC [2] [µg/mL] | MIC [3] [µg/mL] | further results
CN(C)[C@@H]1C(O)=C(C(N)=O)C(=O)[C@@]2(O)C(O)=C3C(=O)c4c(O)cccc4[C@@](C)(O)[C@H]3C[C@@H]12 [TETRACYCLINE] | 8 (≈ 18 µM) | 16 (≈ 36 µM) | 4 (≈ 9 µM) | –
CO[C@@H]1[C@@H](OC(N)=O)[C@@H](O)[C@H](Oc2ccc3c(O)c(NC(=O)c4ccc(O)c(CC=C(C)C)c4)c(=O)oc3c2C)OC1(C)C [NOVOBIOCIN] | 256 (≈ 418 µM) | 256 (≈ 418 µM) | 128 (≈ 209 µM) | –
CN[C@@H]1[C@H](O)[C@H](NC)[C@H]2O[C@@]3(O)C(=O)C[C@@H](C)O[C@H]3O[C@@H]2[C@H]1O [SPECTINOMYCIN] | > 256 | > 256 | – | –
CCN1CCN(C(=O)N[C@@H](C(=O)N[C@@H]2C(=O)N3[C@@H]2SC(C)(C)[C@@H]3C(=O)O)c2ccccc2)C(=O)C1=O [PIPERACILLIN] | 256 (≈ 495 µM) | > 256 | – | –
Cn1nnnc1SCC1=C(C(=O)O)N2C(=O)[C@@H](NC(=O)[C@H](O)c3ccccc3)[C@H]2SC1 [CEFAMANDOLE] | 2 (≈ 4.32 µM) | > 256 | 64 (≈ 138 µM) | –
CN[C@@H]1[C@H](O[C@H]2[C@H](O[C@H]3[C@H](O)[C@@H](O)[C@H](N=C(N)N)[C@@H](O)[C@@H]3N=C(N)N)O[C@@H](C)[C@]2(O)C=O)O[C@@H](CO)[C@H](O)[C@H]1O [STREPTOMYCIN] | 128 (≈ 220 µM) | 256 (≈ 440 µM) | 128 (≈ 220 µM) | –
CO/N=C(\C(=O)N[C@@H]1C(=O)N2C(C(=O)O)=C(CSc3nc(=O)c(O)nn3C)CS[C@H]12)c1csc(N)n1 [CEFTRIAXONE] | 0.047 (≈ 0.0847 µM) | > 256 | 4 (≈ 7.21 µM) | MIC [4]: 0.047 µg/mL (≈ 0.0847 µM); MIC [5]: 2 µg/mL (≈ 3.61 µM); MIC [6]: 6 µg/mL (≈ 10.8 µM); MIC [7]: 12 µg/mL (≈ 21.6 µM); MIC [8]: 24 µg/mL (≈ 43.3 µM); MIC [9]: 64 µg/mL (≈ 115 µM)
CO[C@H]1/C=C/O[C@@]2(C)Oc3c(C)c(O)c4c(O)c(c(/C=N/N5CCN(C)CC5)c(O)c4c3C2=O)NC(=O)/C(C)=C\C=C\[C@H](C)[C@H](O)[C@@H](C)[C@@H](O)[C@@H](C)[C@H](OC(C)=O)[C@@H]1C [RIFAMPIN] | 16 (≈ 19.4 µM) | 16 (≈ 19.4 µM) | 16 (≈ 19.4 µM) | –
CC(=O)OCC1=C(C(=O)O)N2C(=O)[C@@H](NC(=O)Cc3cccs3)[C@H]2SC1 [CEPHALOTHIN] | 4 (≈ 10.1 µM) | > 256 | 128 (≈ 323 µM) | –
CC[C@H]1OC(=O)[C@H](C)[C@@H](O[C@H]2C[C@@](C)(OC)[C@@H](O)[C@H](C)O2)[C@H](C)[C@@H](O[C@@H]2O[C@H](C)C[C@H](N(C)C)[C@H]2O)[C@](C)(O)C[C@@H](C)C(=O)[C@H](C)[C@@H](O)[C@]1(C)O [ERYTHROMYCIN] | 128 (≈ 174 µM) | 4 (≈ 5.45 µM) | 2 (≈ 2.73 µM) | –
CCn1cc(C(=O)O)c(=O)c2ccc(C)nc21 [NALIDIXIC ACID] | 4 (≈ 17.2 µM) | 1 (≈ 4.31 µM) | 0.5 (≈ 2.15 µM) | –
GENTAMICIN | – | – | – | MIC [1, 10]: 1 µg/mL; MIC [2, 10]: 1 µg/mL; MIC [3, 10]: 1 µg/mL
